These results are taken from patent US20220235030A1, “SELECTIVE HISTAMINE H3 ANTAGONIST ACID ADDITION SALTS AND PROCESS FOR THE PREPARATION THEREOF” (RICHTER GEDEON NYRT., priority 2019, published 2022).

Entries after “also recorded” stand apart in the source; their conditions may differ. Counter-ions that a name gives are not always drawn.

Format in all cases: physicochemical
A short description of data set [1]: Dynamic vapor sorption (DVS) analysis at 25° C., hygroscopicity and deliquescence. The following applies: for Critical Relative Humidity (CRH) / relative humidity above which high, continuous weight gain (deliquescence) is observed: DVS at 25° C.; for Critical Relative Humidity (CRH): RH1 of first sorption step with Δm/ΔRH≥0.5; for Δm/ΔRH / relative humidity above which high, continuous weight gain (deliquescence) is observed: sorption; for Δm/ΔRH / relative weight change: 25° C.; for relative weight change: 95% RH. Details: Δm/ΔRH: unit not given beside the values. On the procedure:
Determination of the critical relative humidity is feasible by gravimetric method, e.g. with DVS, where relative humidity is changed in suitably selected steps and a sufficiently long time is used to the onset of quasi-equilibrium.
The deliquescence tendency of each salt is characterized by the critical relative humidity (CRH) value (Table 1), which was determined based on the sorption curves measured according to the measurement parameter settings below, with DVS analysis at 25° C. isotherm conditions, according to the following. […]
If the given sorption step is Δm/ΔRH≥0.5, then RH1 is considered to be the critical relative humidity (CRH) value indicating the end point of the physical stability of the substance. The value thus determined is a good match with the onset of a significant monotonic weight gain observed visually on the sorption curve. Above the critical relative humidity value, it is the process of deliquescence of the substance that determines the weight gain observed on the sorption curve.

The nature of data set [2]: 10-day solid stress stability study, HPLC purity test. The following applies: dicitrate salt. The source says:
Increased stability to ambient humidity is beneficial for longer-term physical and chemical stability of the active ingredient. The relationship between the reduced hygroscopic nature and the increased chemical stability associated with it is shown in the most preferred citrate salts in comparison to the dihydrochloride salt.

Data set [3] can be described thus: Solubility in simulated gastric fluid. The following applies: simulated gastric fluid (SGF without pepsin, pH=1.3); dicitrate salt. An excerpt:
The generally observed hygroscopic nature of the 1-[4-(4-{3-[(2R)-2-methyl-pyrrolidin-1-yl]-propoxy}-phenoxy)-piperidin-1-yl]-ethanone salts is inter alia related to the good solubility thereof.

The mark [4] stands for this setting: listed as monohydrochloride Form A.
The mark [5] stands for this setting: listed as monohydrochloride Form B.

As to `CC(=O)N1CCC(Oc2ccc(OCCCN3CCC[C@H]3C)cc2)CC1` [sulfate, 1-[4-(4-{3-[(2R)-2-methyl-pyrrolidin-1-yl]-propoxy}-phenoxy)-piperidin-1-yl]-ethanone sulfate salt], the “Critical Relative Humidity (CRH)” value in data set [1] (sulfate salt) is on record as 80%. Further, the Δm/ΔRH stood at 0.4 in data set [1] (RH1 0%, sulfate salt); 0.0 in data set [1] (RH1 10%, sulfate salt); 0.0 in data set [1] (RH1 20%, sulfate salt); 0.0 in data set [1] (RH1 30%, sulfate salt); 0.0 in data set [1] (RH1 40%, sulfate salt); 0.0 in data set [1] (RH1 50%, sulfate salt). Moreover, the Δm/ΔRH in data set [1] (RH1 60%, sulfate salt) is 0.0; in data set [1] (RH1 70%, sulfate salt), 0.1; in data set [1] (RH1 80%, sulfate salt), 1.6. Moreover, the relative weight change in data set [1] (sorption curve, sulfate salt) worked out at 53%. The water bound result in data set [1] (sorption curve, up to 80% RH, sulfate salt) is listed as “about 5%”.
In general, solubility refers to the dissolved amount per volume that the medium holds. Regarding `CC(=O)N1CCC(Oc2ccc(OCCCN3CCC[C@H]3C)cc2)CC1` [dicitrate, 1-[4-(4-{3-[(2R)-2-methyl-pyrrolidin-1-yl]-propoxy}-phenoxy)-piperidin-1-yl]-ethanone dicitrate salt], in data set [2] (10-day solid stress: heat, heat and humidity), the “chemical stability (in words)” value was “stable”. Besides, the “All contaminant (area %)” value in data set [2] (10 days, 40° C., 75% RH, open glass) worked out at 0.24% area %; in data set [2] (10 days, 50° C., 75% RH, open glass), 0.25% area %; in data set [2] (10 days, 50° C., sealed glass), 0.23% area %; in data set [2] (10 days, 75° C., sealed glass) it was 0.24% area %; in data set [2] (starting sample) it was 0.23% area %. In addition, the solubility in data set [3] is recorded as 469 mM. For the same molecule, the “Critical Relative Humidity (CRH)” value in data set [1] (dicitrate salt) is reported as “not deliquescent”. Further, the Δm/ΔRH in data set [1] (RH1 0%, dicitrate salt) came to 0.0; in data set [1] (RH1 10%, dicitrate salt), 0.0; in data set [1] (RH1 20%, dicitrate salt), 0.0; in data set [1] (RH1 30%, dicitrate salt), 0.0; in data set [1] (RH1 40%, dicitrate salt), 0.0; in data set [1] (RH1 50%, dicitrate salt) it was 0.0. The Δm/ΔRH stood at 0.0 in data set [1] (RH1 60%, dicitrate salt); 0.0 in data set [1] (RH1 70%, dicitrate salt); 0.1 in data set [1] (RH1 80%, dicitrate salt). Further, the “deliquescence (in words)” value is given as “does not show deliquescence” in data set [1] (above 90% RH, DVS 25° C., dicitrate salt) and “do not show deliquescence; also recorded: not deliquescent” in data set [1] (under the conditions of the DVS analysis, dicitrate salt). Also, the “hygroscopicity (in words)” value in data set [1] (dicitrate salt) is listed as “poorly hygroscopic”. Moreover, the water bound is 3.2% in data set [1] (sorption curve, up to 80% RH, dicitrate salt) and 6.8% in data set [1] (sorption curve, up to 90% RH).
Regarding `CC(=O)N1CCC(Oc2ccc(OCCCN3CCC[C@H]3C)cc2)CC1` [oxalate, 1-[4-(4-{3-[(2R)-2-methyl-pyrrolidin-1-yl]-propoxy}-phenoxy)-piperidin-1-yl]-ethanone oxalate salt], the “Critical Relative Humidity (CRH)” value in data set [1] (oxalate salt) is recorded as “not deliquescent”. The Δm/ΔRH is on record as 0.0 in data set [1] (RH1 0%, oxalate salt); 0.1 in data set [1] (RH1 10%, oxalate salt); 0.1 in data set [1] (RH1 20%, oxalate salt); 0.2 in data set [1] (RH1 30%, oxalate salt); 0.1 in data set [1] (RH1 40%, oxalate salt); 0.0 in data set [1] (RH1 50%, oxalate salt). For the same molecule, the Δm/ΔRH in data set [1] (RH1 60%, oxalate salt) was 0.0; in data set [1] (RH1 70%, oxalate salt) it was 0.0; in data set [1] (RH1 80%, oxalate salt) it was 0.1. Further, the “deliquescence (in words)” value in data set [1] (above 90% RH, DVS 25° C., oxalate salt) is “does not even show deliquescence”; in data set [1] (under the conditions of the DVS analysis, oxalate salt) it was “not deliquescent”. For the same molecule, the “relative weight gain relative to the dried weight” value in data set [1] (sorption curve, 10-50% RH range, constant up to approx. 70% RH) is given as “about 4.7%”.
`CC(=O)N1CCC(Oc2ccc(OCCCN3CCC[C@H]3C)cc2)CC1` [monoHCl Form A, 1-[4-(4-{3-[(2R)-2-methyl-pyrrolidin-1-yl]-propoxy}-phenoxy)-piperidin-1-yl]-ethanone monohydrochloride salt Form A]: the “Critical Relative Humidity (CRH)” value in data set [1] worked out at 40%. Further, the Δm/ΔRH in data set [1] (RH1 0%) was found to be 0.0; in data set [1] (RH1 10%), 0.0; in data set [1] (RH1 20%) it was 0.0; in data set [1] (RH1 30%), 0.3; in data set [1] (RH1 40%), 1.1; in data set [1] (RH1 50%), 0.5. Also, the Δm/ΔRH in data set [1] (RH1 60%) was determined as 0.6; in data set [1] (RH1 70%) it was 1.1; in data set [1] (RH1 80%) it was 2.6. Further, in data set [1] (setting [4]), the “hygroscopicity (in words)” value is “highly hygroscopic”. The molecule further had a relative weight change in data set [1] (sorption curve) of 97%. For the same molecule, the water bound result in data set [1] (sorption curve, up to 40% RH) was “about 3%”. The “relative humidity above which high, continuous weight gain (deliquescence) is observed” value in data set [1] (setting [4]) is “above 40%”.
As to `CC(=O)N1CCC(Oc2ccc(OCCCN3CCC[C@H]3C)cc2)CC1` [diHBr, 1-[4-(4-{3-[(2R)-2-methyl-pyrrolidin-1-yl]-propoxy}-phenoxy)-piperidin-1-yl]-ethanone dihydrobromide salt], the “Critical Relative Humidity (CRH)” value in data set [1] (dihydrobromide salt) was determined as 70%. Further, the Δm/ΔRH came out at 0.0 in data set [1] (RH1 0%, dihydrobromide salt); 0.0 in data set [1] (RH1 10%, dihydrobromide salt); 0.0 in data set [1] (RH1 20%, dihydrobromide salt); 0.0 in data set [1] (RH1 30%, dihydrobromide salt); 0.1 in data set [1] (RH1 40%, dihydrobromide salt); 0.1 in data set [1] (RH1 50%, dihydrobromide salt). Also, the Δm/ΔRH came to 0.3 in data set [1] (RH1 60%, dihydrobromide salt); 3.1 in data set [1] (RH1 70%, dihydrobromide salt); 3.3 in data set [1] (RH1 80%, dihydrobromide salt). In addition, the relative weight change in data set [1] (sorption curve, dihydrobromide salt) is on record as 90%. In addition, the moisture absorbed entry in data set [1] (sorption curve, up to 70% RH) is “about 6%”.
For the molecule `CC(=O)N1CCC(Oc2ccc(OCCCN3CCC[C@H]3C)cc2)CC1` [monoHCl Form B, 1-[4-(4-{3-[(2R)-2-methyl-pyrrolidin-1-yl]-propoxy}-phenoxy)-piperidin-1-yl]-ethanone monohydrochloride salt Form B], the “Critical Relative Humidity (CRH)” value in data set [1] is on record as 30%. Further, the Δm/ΔRH is given as 0.0 in data set [1] (RH1 0%); 0.0 in data set [1] (RH1 10%); 0.0 in data set [1] (RH1 20%); 0.6 in data set [1] (RH1 30%); 0.7 in data set [1] (RH1 40%); 0.4 in data set [1] (RH1 50%). The Δm/ΔRH in data set [1] (RH1 60%) is on record as 0.6; in data set [1] (RH1 70%), 0.9; in data set [1] (RH1 80%), 1.5. Also, in data set [1] (setting [5]), the “hygroscopicity (in words)” value is listed as “highly hygroscopic”. This molecule also came in with a relative weight change in data set [1] (sorption curve) of 61%. The same molecule displayed a water bound in data set [1] (sorption curve, up to 30% RH) of 0.3%. Besides, in data set [1] (setting [5]), the “relative humidity above which high, continuous weight gain (deliquescence) is observed” value is on record as “above 30%”.
